Data set [1] can be described thus: Degradation of molecule C with acid in CD3OD, monitored by 1H NMR. The format is physicochemical. The method, then: […] Molecule C (103.5 mg, 436 μmol) was dissolved in 0.94 mL of CD3OD and 0.5 mL (55.1 mg, 232 μmol) was transferred to a NMR tube. […] […] This reaction was too rapid to monitor the kinetics.
Data set [2] can be described thus: Degradation of molecule C under neutral conditions, monitored by 1H NMR. The class given is physicochemical. The method, then:
Kinetics of the degradation of molecule C under neutral conditions (FIG. 2a). Molecule C (363.2 mg, 1.53 mmol) was dissolved in 3.3 mL of CD3OD, from which 0.5 mL (55.1 mg, 232 μmol) was transferred to a NMR tube. After adding an additional 0.5 mL of CD3OD, ^1H NMR spectra were recorded at room temperature every few days. After 33 days, 15% of molecule C degraded to yield N-benzylmethylamine.
This procedure was also followed but the NMR tube was added to a heat bath at 40° C.
For the kinetics in C6D6 at room temperature, a solution of molecule C (33.9 mg, 143 μmol) in 0.7 mL of C6D6 was added to a NMR tube and ^1H NMR spectra were recorded every few days for 30 days.

A further data set in a line: pKa. The format is physicochemical. The note with it: inferred from partial protonation by benzoic acid in CD3OD.
The next data set is described as follows: Solubility in D2O. The class given is physicochemical.
The conditions of data set [3]: pH=7.5, 37° C.; cited from earlier work.

Turning to `CCCCCCSNCCc1ccccc1` [Molecule C, N-Benzylmethyl-hexanesulfenamide], the “degradation of molecule C” value in data set [1] (five equivalents of benzoic acid, 4 min) was 51%; in data set [1] (two molar equivalents of p-toluenesulfonic acid, within four minutes) it was > 90%; in data set [1] (two molar equivalents of trifluoroacetic acid, within four minutes), > 90%; in data set [2] (C6D6, room temperature, 30 days), < 3%; in data set [2] (CD3OD, 40° C., 33 days) it was 27%; in data set [2] (CD3OD, room temperature, 33 days, no acid), 15%. In addition, in data set [2] (C6D6, after 30 days), the “1H NMR spectrum of molecule C (stability in aprotic solvent)” value is “unchanged”. Besides, in “pKa”, the “pKa of the protonated sulfenamide” value was “approximately the same pKa as benzoic acid”. In addition, the “solubility in D2O” value in the data set “Solubility in D2O” is listed as “not soluble”.

With `C=CCS[S+]([O-])CC=C` (stereo not shown) [allicin], the “half-life of the decomposition” value in data set [3] is listed as “approximately 2 days”.

The record behind these values is patent US9345776B2, “Biodegradable polymers with sulfenamide bonds for drug delivery applications” (The University of Iowa Research Foundation, priority 2011, dated 2016).
